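The compound was tested at five concentrations on cells cultured in 96-well plates, with a 48-hour exposure period. The concentration for 50% growth inhibition is given as GI50. TGI: concentration producing complete growth inhibition.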
Tests used:
Assay in all cases: inhibition of tumour cell growth, NCI panel, 48 h
[1] = tested on: HL-60(TB) leukemia
[2] = tested on: DLD-1 colon
[3] = tested on: LXFL 529 NSCLC
[4] = tested on: K-562 leukemia
[5] = tested on: KM20L2 colon
[6] = tested on: XF 498 CNS
[7] = tested on: SNB-78 CNS
[8] = tested on: NCI/ADR-RES ovarian
[9] = tested on: BT-549 breast
[10] = tested on: MDA-MB-435
[11] = tested on: MCF7 breast

Compound	TGI [1] [µM]	TGI [2] [µM]	TGI [3] [µM]	TGI [4] [µM]	TGI [5] [µM]	TGI [6] [µM]	TGI [7] [µM]	other results
CC(=O)[O-].[Mn+3].[O-]c1ccccc1C=NCCN=Cc1ccccc1[O-]	> 100	> 100	> 100	> 100	> 100			GI50 [1]: 19.2 µM; GI50 [2]: 56.5 µM; GI50 [3]: 50.7 µM; GI50 [4]: 30.3 µM; GI50 [5]: 56.2 µM
O=C(c1ccccc1)c1oc2ccc(Br)cc2c1-c1cnn(-c2ccccc2)c1	> 100	> 100	> 100	> 100	> 100	> 100	> 100	
CN(C)CCNC(=O)c1cccc2c(Nc3ccc(S(N)(=O)=O)cc3)c3ccccc3nc12			2.23	9.61	13.3	1.81		
Cc1nc(-c2ccccc2)cc2c1c(=O)oc1ccccc12	> 100	> 100	> 100	> 100	> 100		> 100	
CN(CCc1ccccn1)c1nc(=[N+](C)C)ss1	> 100	> 100	> 100	> 100	> 100	> 100	> 100	
CC(=O)O[C@H]1CCC2[C@@H]3CCC4=C(O)C(=O)C(C#N)C[C@]4(C)C3CC[C@@]21C (stereo partly specified)	85.3	> 100	> 100	> 100	> 100	> 100	> 100	
O=C(Cc1nc2ccccc2s1)C(=O)Nc1cccc(Cl)c1	> 100	> 100	> 100	> 100	> 100	> 100	> 100	
CCOC(=O)C(=O)Nc1ccc(Cl)cc1C	> 100	> 100	> 100	> 100	> 100	> 100	> 100	
CC(C)C1CC2C(=O)N(c3ccccc3)C(=O)C2c2[nH]c3ccccc3c21 (stereo unspecified)	93.9	> 100		18.7	> 100	54.9	77.3	
COc1ccc(Cc2cc3c(cc2OCC(=O)O)OCO3)cc1	> 100	> 100		> 100	> 100			
CC1=C(C(=O)NCc2ccccc2)C(c2ccc([N+](=O)[O-])cc2)C(C(=O)NCc2ccccc2)=C(C)N1	49.3	> 100	> 100	> 100	54	> 100	> 100	
COc1cc2c(cc1OC)C(OC)N(C)c1c-2ccc2cc3c(cc12)OCO3 (stereo unspecified)	> 36.9	61.2		33.2	6.5	2.95	> 75	TGI [8]: > 55.3 µM; TGI [9]: > 75 µM; TGI [10]: > 75 µM; TGI [11]: 12.6 µM
O=C1c2ccccc2NC1(c1ccccc1)c1c(-c2ccccc2)[nH]c2ccccc12 (stereo unspecified)	30.3	> 100	> 100	> 100	> 100	99	> 100	
COc1ccc(NC(=O)CC/C(CC(=O)C(C)(C)C)=N\NC(=O)C(N)=O)cc1	> 100	> 100	> 100	> 100	> 100			
C[C@@H](CN1CC(=O)NC(=O)C1)N1CC(=O)NC(=O)C1	1300	1090		2500	1290	201	1480	TGI [8]: 987 µM; TGI [9]: 783 µM; TGI [10]: 1470 µM; TGI [11]: 498 µM
Cc1ccccc1C(=O)Oc1ccc(O)cc1	> 100	> 100		> 100	> 100		> 100	
COC(=O)CCC(=O)Nc1cc(Cl)ccc1Cl	> 100	> 100	> 100	> 100	> 100	> 100	> 100	
O=C(O)/C(Cl)=C(\Cl)C(=O)NC1C2CC3CC(C2)CC1C3 (stereo unspecified)	> 100	> 100	> 100	> 100	> 100	> 100	> 100	
CC1=C(C(=O)Nc2cc(=O)n(C)c(=O)n2C)C(c2ccc([N+](=O)[O-])cc2)C(C(=O)Nc2cc(=O)n(C)c(=O)n2C)=C(C)N1	> 100	> 100	> 100	> 100	> 100	> 100	> 100	
CC(=O)C1C(=O)NC(=O)C1=O (stereo unspecified)			> 100	> 100	> 100	> 100	> 100	
COc1cc(O)c2c(c1)C(=O)C=C(Cl)C2=O	> 100	> 100	> 100	> 100	> 100	> 100	> 100	
O=C(CC1(O)C(=O)Nc2ccccc21)c1ccco1 (stereo unspecified)	> 100	> 100	> 100	> 100	> 100	> 100	> 100	
O=S(=O)(SCc1ccccc1)C(c1ccccc1)c1ccccc1	77	55.4	> 100	> 100	40.5	> 100	75.7	
Cc1nc(CN2CCCCC2)c(O)c(=O)[nH]1	> 100			> 100				TGI [8]: > 100 µM; TGI [9]: > 100 µM; TGI [10]: > 100 µM; TGI [11]: > 100 µM
S=C(Nc1ccc(Cl)cc1)Nc1ccc(-c2nc3ccccc3o2)cc1	> 100			> 100				GI50 [8]: 21.8 µM; TGI [8]: 58.7 µM; GI50 [1]: 32.2 µM; GI50 [9]: 22.2 µM; TGI [9]: 60.7 µM; GI50 [10]: 18.5 µM; TGI [10]: 43.9 µM; GI50 [11]: 17.6 µM; TGI [11]: 51.4 µM; GI50 [4]: 22.6 µM
Cc1ccc(NC(=O)C(=O)CC(=O)C2CCOC2=O)c(C)c1 (stereo unspecified)	> 100	> 100	> 100	> 100	> 100	> 100	> 100	

Source: PubChem BioAssay (NCI)
